From ChEMBL document CHEMBL1201862, “PubChem BioAssay data set” (2004)
Activity calls are given as the source filed them.

Assays:
Wee1-like protein kinase = Wee1-like protein kinase (Homo sapiens, UniProt P30291); assay: Navigating the Kinome. Panel member name: WEE1; assay type: functional
[1] = target: ALK tyrosine kinase receptor (Homo sapiens, UniProt Q9UM73); assay type: functional;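 note: ALK tested as one member of a kinase panel screen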
[2] = target: T1, High affinity choline transporter 1 (Homo sapiens, UniProt Q9GZV3); assay: CHT inhibitors, dose response, cell-based, 10-point CRC, membrane potential dye (AID 588401); assay type: functional;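 note: membrane potential dye fluorescence of choline-evoked depolarization via CHT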
T1 sequence (Q9GZV3 whole entry): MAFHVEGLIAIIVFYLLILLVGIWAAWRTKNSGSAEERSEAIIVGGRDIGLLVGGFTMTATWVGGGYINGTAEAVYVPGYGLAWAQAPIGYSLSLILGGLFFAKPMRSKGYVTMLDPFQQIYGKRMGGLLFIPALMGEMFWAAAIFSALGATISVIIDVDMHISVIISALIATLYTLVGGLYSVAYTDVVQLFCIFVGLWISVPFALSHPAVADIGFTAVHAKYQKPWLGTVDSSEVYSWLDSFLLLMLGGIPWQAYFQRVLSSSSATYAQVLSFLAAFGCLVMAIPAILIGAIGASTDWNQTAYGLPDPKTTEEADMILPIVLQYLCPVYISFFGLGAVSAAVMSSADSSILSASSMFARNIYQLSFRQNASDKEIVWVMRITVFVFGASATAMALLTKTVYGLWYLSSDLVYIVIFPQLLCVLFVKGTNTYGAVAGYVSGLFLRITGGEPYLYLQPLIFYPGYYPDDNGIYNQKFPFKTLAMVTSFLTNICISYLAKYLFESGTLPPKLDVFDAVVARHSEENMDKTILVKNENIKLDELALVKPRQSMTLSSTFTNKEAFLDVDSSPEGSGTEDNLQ

[3] = target: T2, Calpain-2 catalytic subunit (Sus scrofa, UniProt P43367); assay: pig calpain II inhibitor potency, dose response, biochemical, fluorogenic peptide substrate (AID 1420); assay type: functional
T2 sequence (P43367 whole entry): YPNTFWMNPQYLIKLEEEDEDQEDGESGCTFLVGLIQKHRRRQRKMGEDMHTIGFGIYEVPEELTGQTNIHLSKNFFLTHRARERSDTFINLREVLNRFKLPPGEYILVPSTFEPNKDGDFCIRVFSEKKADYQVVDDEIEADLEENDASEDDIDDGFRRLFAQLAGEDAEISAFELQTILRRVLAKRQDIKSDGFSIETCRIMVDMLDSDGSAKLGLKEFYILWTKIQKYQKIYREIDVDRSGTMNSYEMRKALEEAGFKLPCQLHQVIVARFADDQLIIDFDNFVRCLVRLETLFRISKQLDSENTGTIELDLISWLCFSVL

[4] = target: T1, High affinity choline transporter 1; assay: CHT inhibitors, dose response, cell-based, 5-point CRC, membrane potential dye (AID 504840); assay type: functional
[5] = A High Throughput Confirmatory Assay used to Identify Novel Compounds that Inhibit Mycobacterium Tuberculosis in the absence of Glycerol using Purified and Synthesized Compounds (3).; assay type: functional
[6] = A549 cell cytotoxicity, dose response, cytotoxicity control, plate reader, cherry-pick, antagonist series (AID 743412); assay type: functional, cell-based
[7] = MC4R antagonists, dose response, counter-screen for LGR2 antagonist project, cell-based, plate reader, cherry pick (AID 743444); assay type: functional;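 note: transfected HEK 293 cells stimulated with alpha-MSH peptide; potency of inhibitors of the alpha-MSH evoked signal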
BJ [8] = assay: cytotoxicity toward BJ-TERT-LT-ST fibroblasts, dose response, cell-based, RAS-independent, luminescence (AID 1935); assay type: functional; conditions: Homo sapiens;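 note: BJ fibroblasts immortalized with TERT plus LT and ST oncogenes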
Melanocortin receptor 4 = Melanocortin receptor 4 (Homo sapiens, UniProt P32245); assay: MC4R antagonist potency on cAMP, dose response, cell-based, TR-FRET, biased antagonists (AID 602298); assay type: functional;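 note: antagonist potency against agonist-stimulated cAMP production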
Chain of Melanocortin receptor 4 (P32245 whole entry): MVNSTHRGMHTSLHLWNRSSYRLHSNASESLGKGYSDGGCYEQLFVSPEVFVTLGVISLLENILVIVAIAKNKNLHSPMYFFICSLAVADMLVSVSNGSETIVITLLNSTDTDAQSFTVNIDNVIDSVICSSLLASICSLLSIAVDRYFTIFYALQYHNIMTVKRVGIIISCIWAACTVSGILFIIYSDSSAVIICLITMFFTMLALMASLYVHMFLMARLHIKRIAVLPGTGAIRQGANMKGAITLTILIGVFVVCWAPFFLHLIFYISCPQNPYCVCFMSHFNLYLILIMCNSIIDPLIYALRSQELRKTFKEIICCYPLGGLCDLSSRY

[9] = HEK293 cell cytotoxicity, dose response, cytotoxicity control, plate reader, cherry-picked samples (AID 743446); assay type: functional, cell-based
[10] = inhibitors of firefly luciferase expression or activity, dose response, H4 neuroglioma cells, luminescence (AID 1990); assay type: functional, cell-based
[11] = cytotoxicity in KRAS-transformed pancreatic duct cells, primary screen, cell-based, fluorescence, HTS (AID 431); assay type: functional; conditions: Homo sapiens;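 note: cell line used: HPDE-C7K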
[12] = HepG2 cell cytotoxicity, dose response, cytotoxicity control, plate reader, cherry-pick, antagonist series (AID 743416); assay type: functional, cell-based
[13] = LGR2 antagonists, dose response, cell-based, HEK293, CRE-luciferase reporter, cherry pick, set 2 (AID 743343); assay type: functional;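 note: transfected cells were stimulated with diluted bursicon conditioned medium after compound addition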
[14] = nonselective inhibitors of cellular cAMP signaling, dose response, counter-screen for MC4R biased antagonist project, cell-based, TR-FRET cAMP detection (AID 602305); assay type: functional;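 note: U2OS cells stimulated with forskolin near its EC80 as the cAMP inducer; potency is for inhibition of forskolin-stimulated cAMP signaling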
[15] = Luminescence Cell-Based Dose Response HTS to Identify Inhibitors of 5'UTR Stem-Loop Driven Prion Protein mRNA Translation in H4 Neuroglioblastoma Cells. [Related pubchem assays: 1827 (Project Summary), 1813 (Primary HTS)]; assay type: functional
BJ [16] = assay: cytotoxicity toward BJ-TERT fibroblasts, dose response, cell-based, RAS-independent, luminescence (AID 1933); assay type: functional; conditions: Homo sapiens
[17] = inhibitors of SNCA 5'UTR-driven reporter translation, confirmation, H4 neuroglioma cells, luminescence (AID 1988); assay type: functional, cell-based
[18] = inhibitors of PGC1a acetylation in cells, dose response, cell-based, cherry-picked samples (AID 720514); assay type: functional;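 note: potency may reflect raised or lowered acetylation signal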
[19] = cytotoxicity toward DRD oncogenic fibroblasts, dose response, cell-based, non-viral oncogenic, luminescence (AID 1934); assay type: functional; conditions: Homo sapiens
BJ [20] = assay: cells; assay type: functional, cell-based; conditions: Homo sapiens
[21] = cytotoxicity in HPDE-C7 cells, cell-based, fluorescence, HTS (AID 430); assay type: functional; conditions: Homo sapiens
Nonstructural protein 1 = Nonstructural protein 1 (Influenza A virus, UniProt Q194T2); assay type: functional, Influenza A virus (A/California/07/2009(H1N1))
Chain of Nonstructural protein 1 (Q194T2 whole entry): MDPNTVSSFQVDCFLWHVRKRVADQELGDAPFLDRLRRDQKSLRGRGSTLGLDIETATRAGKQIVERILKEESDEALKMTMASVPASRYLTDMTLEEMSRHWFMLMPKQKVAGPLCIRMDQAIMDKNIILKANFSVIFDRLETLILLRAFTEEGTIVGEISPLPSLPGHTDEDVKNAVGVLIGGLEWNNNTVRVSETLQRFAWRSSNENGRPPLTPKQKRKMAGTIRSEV

[22] = target: Latent membrane protein 1 (Human herpesvirus 4 (strain B95-8), UniProt P03230); assay: TES1-eGFP NF-kB reporter inhibition versus Tet-On dsRED, dose response, selectivity assay for LMP1 NF-kB inhibitor project, imaging, HEK293T, dual-color eGFP/dsRED, cherry-picks (AID 588398); assay type: functional, cell-based
Hexokinase HKDC1 = target: T3, Hexokinase HKDC1 (Homo sapiens, UniProt Q2TB90); assay: HKDC1 hexokinase activators, dose response, biochemical, W721R variant (AID 504730); assay type: functional
T3 sequence (Q2TB90 whole entry): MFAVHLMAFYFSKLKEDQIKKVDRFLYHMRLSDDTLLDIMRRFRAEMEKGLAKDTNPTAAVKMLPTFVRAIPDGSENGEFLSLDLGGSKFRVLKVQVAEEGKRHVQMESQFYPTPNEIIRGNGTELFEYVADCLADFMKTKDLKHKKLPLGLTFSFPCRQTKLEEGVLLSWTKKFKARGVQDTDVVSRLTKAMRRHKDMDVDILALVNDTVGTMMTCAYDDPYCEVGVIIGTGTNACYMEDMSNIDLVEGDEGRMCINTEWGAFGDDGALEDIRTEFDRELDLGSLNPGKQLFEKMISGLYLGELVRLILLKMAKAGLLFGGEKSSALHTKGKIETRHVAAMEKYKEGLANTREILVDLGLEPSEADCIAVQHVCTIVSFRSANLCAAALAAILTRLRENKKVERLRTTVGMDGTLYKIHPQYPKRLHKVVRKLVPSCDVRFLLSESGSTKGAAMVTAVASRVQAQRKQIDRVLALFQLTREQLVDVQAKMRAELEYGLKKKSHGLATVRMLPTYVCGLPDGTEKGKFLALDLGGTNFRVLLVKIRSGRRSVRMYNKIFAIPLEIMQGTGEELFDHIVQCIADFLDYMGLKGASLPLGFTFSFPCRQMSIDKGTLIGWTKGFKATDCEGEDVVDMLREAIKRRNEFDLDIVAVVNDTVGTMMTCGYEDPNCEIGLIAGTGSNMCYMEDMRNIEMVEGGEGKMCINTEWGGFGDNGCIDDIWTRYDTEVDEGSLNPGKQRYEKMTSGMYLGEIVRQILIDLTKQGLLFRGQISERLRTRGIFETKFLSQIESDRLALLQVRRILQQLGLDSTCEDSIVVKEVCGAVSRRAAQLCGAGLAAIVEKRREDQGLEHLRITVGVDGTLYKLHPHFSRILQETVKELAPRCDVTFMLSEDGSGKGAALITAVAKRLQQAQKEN

Hexokinase-1 = Hexokinase-1 (Homo sapiens, UniProt P19367); assay: hexokinase 1 activators, dose response, selectivity assay for HKDC1 activator project, biochemical (AID 504762); assay type: functional
[23] = target: Melanin-concentrating hormone receptor 1 (Homo sapiens, UniProt Q99705); assay: Late-stage fluorescence-based counterscreen for antagonists of the G-protein coupled receptor 7 (GPR7): cell-based dose response assay to identify antagonists of the melanin-concentrating hormone receptor 1 (MCHR1) Set 5.; assay type: functional
Chain of Melanin-concentrating hormone receptor 1 (Q99705 whole entry): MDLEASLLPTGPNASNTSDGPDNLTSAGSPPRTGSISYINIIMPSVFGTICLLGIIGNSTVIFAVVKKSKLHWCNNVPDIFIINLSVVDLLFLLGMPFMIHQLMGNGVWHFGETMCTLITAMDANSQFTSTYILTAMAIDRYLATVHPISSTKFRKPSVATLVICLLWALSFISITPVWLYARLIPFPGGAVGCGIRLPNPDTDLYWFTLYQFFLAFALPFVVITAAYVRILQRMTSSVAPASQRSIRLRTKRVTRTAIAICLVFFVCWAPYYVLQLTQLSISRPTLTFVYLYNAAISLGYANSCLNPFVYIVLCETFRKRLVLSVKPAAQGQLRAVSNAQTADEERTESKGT

[24] = target: Serine/threonine-protein kinase D3 (Homo sapiens, UniProt O94806); assay type: functional;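 note: determined within a kinase panel screen, with PRKCN as the panel member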
Chain of Serine/threonine-protein kinase D3 (O94806 whole entry): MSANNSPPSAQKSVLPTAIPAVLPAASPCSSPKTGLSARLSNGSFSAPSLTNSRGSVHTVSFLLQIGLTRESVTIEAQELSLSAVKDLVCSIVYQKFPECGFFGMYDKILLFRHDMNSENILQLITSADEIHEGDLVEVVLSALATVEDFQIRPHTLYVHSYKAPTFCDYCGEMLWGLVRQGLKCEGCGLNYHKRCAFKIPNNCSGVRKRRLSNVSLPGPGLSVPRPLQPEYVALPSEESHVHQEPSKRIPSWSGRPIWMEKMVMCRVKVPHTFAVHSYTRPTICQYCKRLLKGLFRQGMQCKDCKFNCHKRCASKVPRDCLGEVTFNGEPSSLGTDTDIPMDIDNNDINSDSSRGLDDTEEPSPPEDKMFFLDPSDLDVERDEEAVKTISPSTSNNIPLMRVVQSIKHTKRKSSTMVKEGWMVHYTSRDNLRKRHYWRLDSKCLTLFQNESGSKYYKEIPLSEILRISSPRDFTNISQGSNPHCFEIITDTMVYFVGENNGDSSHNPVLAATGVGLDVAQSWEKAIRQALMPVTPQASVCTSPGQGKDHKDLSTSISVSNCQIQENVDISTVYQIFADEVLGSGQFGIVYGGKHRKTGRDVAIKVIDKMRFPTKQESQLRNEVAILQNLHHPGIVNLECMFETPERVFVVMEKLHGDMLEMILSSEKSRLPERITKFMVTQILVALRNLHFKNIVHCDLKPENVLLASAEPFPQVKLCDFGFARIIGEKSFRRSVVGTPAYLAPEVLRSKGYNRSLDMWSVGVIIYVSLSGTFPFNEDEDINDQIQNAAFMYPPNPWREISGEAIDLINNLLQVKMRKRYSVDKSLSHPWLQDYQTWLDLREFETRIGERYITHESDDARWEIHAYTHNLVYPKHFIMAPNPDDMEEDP

[25] = target: Serine/threonine-protein kinase D2 (Homo sapiens, UniProt Q9BZL6); assay type: functional;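 note: measured against PRKD2 as one member of a kinome-wide kinase profiling panel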
[26] = target: Dual specificity tyrosine-phosphorylation-regulated kinase 1A (Homo sapiens, UniProt Q13627); assay type: functional;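 note: measured against DYRK1A as one member of a broad kinome profiling panel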
[27] = target: Serine/threonine-protein kinase pim-2 (Homo sapiens, UniProt Q9P1W9); assay type: functional;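 note: value comes from a broad kinase panel profiling study in which PIM2 was one of the panel members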
Chain of Serine/threonine-protein kinase pim-2 (Q9P1W9 whole entry): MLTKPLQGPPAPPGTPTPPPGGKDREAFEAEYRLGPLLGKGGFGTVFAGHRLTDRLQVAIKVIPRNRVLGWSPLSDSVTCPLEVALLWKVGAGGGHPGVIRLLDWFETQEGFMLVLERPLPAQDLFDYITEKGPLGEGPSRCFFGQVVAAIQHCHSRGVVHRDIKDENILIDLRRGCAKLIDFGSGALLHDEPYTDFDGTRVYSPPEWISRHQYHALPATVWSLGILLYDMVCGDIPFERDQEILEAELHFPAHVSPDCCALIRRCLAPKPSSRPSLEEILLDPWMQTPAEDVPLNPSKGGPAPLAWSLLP

[28] = target: Dual specificity protein kinase CLK2 (Homo sapiens, UniProt P49760); assay type: functional
Chain of Dual specificity protein kinase CLK2 (P49760 whole entry): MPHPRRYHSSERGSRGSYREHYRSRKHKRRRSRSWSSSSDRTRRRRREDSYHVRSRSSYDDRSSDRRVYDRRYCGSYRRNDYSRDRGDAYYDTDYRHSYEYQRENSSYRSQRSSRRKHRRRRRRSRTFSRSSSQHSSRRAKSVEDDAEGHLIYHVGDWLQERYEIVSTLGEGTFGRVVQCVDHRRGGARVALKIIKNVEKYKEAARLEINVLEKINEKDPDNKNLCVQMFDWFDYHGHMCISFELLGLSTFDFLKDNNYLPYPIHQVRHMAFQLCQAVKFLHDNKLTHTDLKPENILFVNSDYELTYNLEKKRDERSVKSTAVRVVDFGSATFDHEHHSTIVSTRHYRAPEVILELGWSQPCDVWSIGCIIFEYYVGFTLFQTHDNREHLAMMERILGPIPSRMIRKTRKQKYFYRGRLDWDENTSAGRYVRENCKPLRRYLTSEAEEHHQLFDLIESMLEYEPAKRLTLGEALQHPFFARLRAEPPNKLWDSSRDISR

[29] = target: Calcium/calmodulin-dependent protein kinase type II subunit alpha (Homo sapiens, UniProt Q9UQM7); assay: Navigating the Kinome. Panel member name: CAMK2A; assay type: functional
[30] = target: Mitogen-activated protein kinase 9 (Homo sapiens, UniProt P45984); assay type: functional;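 note: value from a kinome panel profiling assay, MAPK9 panel entry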
[31] = target: Platelet-derived growth factor receptor alpha (Homo sapiens, UniProt P16234); assay: Navigating the Kinome. Panel member name: PDGFRA; assay type: functional
[32] = target: Proto-oncogene tyrosine-protein kinase receptor Ret (Homo sapiens, UniProt P07949); assay type: functional;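 note: measured within a kinome-wide profiling panel, RET as the panel member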
[33] = target: Serine/threonine-protein kinase pim-1 (Homo sapiens, UniProt P11309); assay type: functional
Chain of Serine/threonine-protein kinase pim-1 (P11309 whole entry): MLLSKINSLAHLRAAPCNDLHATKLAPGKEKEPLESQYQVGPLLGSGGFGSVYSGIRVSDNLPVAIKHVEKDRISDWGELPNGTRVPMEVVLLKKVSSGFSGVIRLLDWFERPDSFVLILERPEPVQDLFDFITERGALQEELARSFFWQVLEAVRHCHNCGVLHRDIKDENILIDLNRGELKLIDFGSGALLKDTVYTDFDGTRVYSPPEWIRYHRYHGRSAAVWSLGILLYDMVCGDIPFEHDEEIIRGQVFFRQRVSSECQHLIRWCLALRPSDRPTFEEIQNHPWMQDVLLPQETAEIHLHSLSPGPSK

[34] = target: Calcium/calmodulin-dependent protein kinase type II subunit beta (Homo sapiens, UniProt Q13554); assay type: functional
[35] = target: Protein kinase C zeta type (Homo sapiens, UniProt Q05513); assay type: functional;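 note: measured as one member of a broad kinase profiling panel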
[36] = target: Protein kinase C gamma type (Homo sapiens, UniProt P05129); assay type: functional
[37] = target: MAP kinase-activated protein kinase 3 (Homo sapiens, UniProt Q16644); assay type: functional;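 note: value comes from a kinome-wide profiling panel in which MAPKAPK3 is one of the panel members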
[38] = target: G protein-coupled receptor kinase 5 (Homo sapiens, UniProt P34947); assay: Navigating the Kinome. Panel member name: GPRK5; assay type: functional
Chain of G protein-coupled receptor kinase 5 (P34947 whole entry): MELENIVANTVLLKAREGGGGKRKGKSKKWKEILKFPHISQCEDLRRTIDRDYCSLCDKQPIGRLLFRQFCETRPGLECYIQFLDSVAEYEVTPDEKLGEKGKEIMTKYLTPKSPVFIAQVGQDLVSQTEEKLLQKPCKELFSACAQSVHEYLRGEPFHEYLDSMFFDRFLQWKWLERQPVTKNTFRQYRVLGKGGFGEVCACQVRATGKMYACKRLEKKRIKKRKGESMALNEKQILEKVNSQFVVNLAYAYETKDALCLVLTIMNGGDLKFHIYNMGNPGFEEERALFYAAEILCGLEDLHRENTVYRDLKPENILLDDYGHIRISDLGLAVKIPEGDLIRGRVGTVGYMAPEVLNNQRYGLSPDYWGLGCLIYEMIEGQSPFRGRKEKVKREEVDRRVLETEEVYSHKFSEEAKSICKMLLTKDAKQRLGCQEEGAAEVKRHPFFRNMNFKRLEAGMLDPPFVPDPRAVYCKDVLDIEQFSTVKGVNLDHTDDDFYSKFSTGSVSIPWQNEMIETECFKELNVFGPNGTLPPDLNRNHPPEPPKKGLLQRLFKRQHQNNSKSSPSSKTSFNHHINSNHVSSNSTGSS

Chain of Wee1-like protein kinase (P30291 whole entry): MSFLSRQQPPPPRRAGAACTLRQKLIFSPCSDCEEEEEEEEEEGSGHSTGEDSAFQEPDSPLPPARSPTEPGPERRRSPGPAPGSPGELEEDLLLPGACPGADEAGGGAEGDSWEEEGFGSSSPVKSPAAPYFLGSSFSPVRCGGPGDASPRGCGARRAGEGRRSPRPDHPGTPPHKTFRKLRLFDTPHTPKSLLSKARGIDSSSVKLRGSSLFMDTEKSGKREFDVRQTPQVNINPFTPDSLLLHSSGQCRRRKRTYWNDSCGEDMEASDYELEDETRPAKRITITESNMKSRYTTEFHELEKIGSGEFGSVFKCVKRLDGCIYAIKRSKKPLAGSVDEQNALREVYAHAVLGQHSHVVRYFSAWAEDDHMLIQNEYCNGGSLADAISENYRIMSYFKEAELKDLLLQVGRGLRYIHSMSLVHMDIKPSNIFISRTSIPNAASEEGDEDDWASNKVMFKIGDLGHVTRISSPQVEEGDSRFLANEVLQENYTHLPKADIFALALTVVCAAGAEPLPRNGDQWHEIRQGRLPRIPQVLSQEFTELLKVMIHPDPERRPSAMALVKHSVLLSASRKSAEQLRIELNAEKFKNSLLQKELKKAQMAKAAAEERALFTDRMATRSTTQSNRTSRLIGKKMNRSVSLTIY

CCNc1nc(C)c(-c2ccnc(Nc3ccc(N4CCNCC4)cc3)n2)s1
Ki (Wee1-like protein kinase): 79.4 nM (active)
Ki [1]: 200 nM (active)

CC(C)CCN=C(S)Nc1ccc([N+](=O)[O-])cc1
IC50 [2]: 8.43 µM (active)
IC50 [3]: > 50 µM (not active)
IC50 [4]: 9.34 µM (active)

CCOc1ccc(NC(=O)CSc2nc(O)c(C)c(=O)n2-c2ccc(F)cc2)cc1
IC50 [5]: > 25 µM (active)

C[S+]([O-])c1nc(-c2ccc(Br)cc2)cc(-c2ccccc2)c1C#N (centres undefined)
AC50 [6]: 3.25 µM (active)
AC50 [7]: 25.1 µM (active)
EC50 (BJ [8]): 2.41 µM (active)
IC50 (Melanocortin receptor 4): 1.28 µM (active)
AC50 [9]: 7.73 µM (active)
EC50 [10]: 7.72 µM (active)
EC50 [11]: 2.18 µM (active)
AC50 [12]: 11.2 µM (active)
AC50 [13]: 19.8 µM (active)
IC50 [14]: > 64.6 µM (inactive)
EC50 [15]: 5.38 µM (active)
EC50 (BJ [16]): 3.04 µM (active)
EC50 [17]: 3.41 µM (active)
AC50 [18]: 5.21 µM (active)
EC50 [19]: 2.91 µM (active)
EC50 (BJ [20]): 5.13 µM (active)
EC50 [21]: 1.78 µM (active)

COc1ccccc1NC(=S)NN=C(C)c1ccccn1
IC50 (Nonstructural protein 1): 25.8 µM (active)
AC50 [22]: 638 nM (active)
EC50 (Hexokinase HKDC1): 3.03 µM (active)
EC50 (Hexokinase-1): > 80 µM (inactive)

COc1ccc(Oc2c(Cl)cnn(Cc3cccc4ccccc34)c2=O)cc1OC
IC50 [23]: 1.44 µM (active)

Cn1ccc2c(-c3ccccc3F)nc(N(C(N)=O)c3c(F)cccc3F)nc21
Ki [24]: 2 µM (active)
Ki [25]: 3.16 µM (active)
Ki [26]: 3.16 µM (active)
Ki [27]: 1.26 µM (active)
Ki [28]: 7.94 µM (active)

CCN(CCN(C)C)C(=O)c1cccc(-n2nc(C(C)(C)C)cc2NC(=O)Nc2cccc3ccccc23)c1
Ki [29]: > 7.94 µM (inactive)
Ki [30]: 3.16 µM (active)
Ki [24]: 3.16 µM (active)
Ki [31]: 1.26 µM (active)
Ki [32]: 1.58 µM (active)

CNCCONC(=O)c1ccc(F)c(F)c1Nc1ccc(I)cc1F
Ki [33]: 2 µM (active)
Ki [34]: 7.94 µM (active)

O=c1ncn2nc(Sc3ccc(F)cc3F)ccc2c1-c1c(Cl)cccc1Cl [NEFLAMAPIMOD]
Ki [35]: > 7.94 µM (inactive)
Ki [36]: > 7.94 µM (inactive)
Ki [37]: > 10 µM (inactive)
Ki [38]: > 3.98 µM (inactive)
